Reference: PubChem BioAssay AID743402 (Broad Institute, 2014)

Test system: FRT CFTR-F508del YFP iodide quenching, 24 h
Assay: restoration of mutant CFTR halide transport – FRT cells, YFP quenching, cherry-pick, dose response (AID 743402);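 note: compounds act as correctors raising surface CFTR-F508del before acute activation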
[1] = channel opened with forskolin and a potentiator

O=S(=O)(c1ccc(F)cc1)N1CC[C@@H]2[C@@H](CO)Nc3ccc(-c4ccc(F)cc4)cc3[C@@H]21
AC35 [1]: 17.7 µM

C#C[C@]1(O)CC[C@H]2[C@@H]3CCc4cc(OC5CCCC5)ccc4[C@H]3CC[C@@]21C
AC35 [1]: 25.1 µM

O=[N+]([O-])c1ccc(Sc2cccc[n+]2[O-])c2nonc12
AC35 [1]: 4.93 µM

CN(C)/C=C1\C=C2C(=O)c3ccccc3N2C1=O
AC35 [1]: 2.19 µM

N#C/C(=C\c1ccccn1)c1nc2ccccc2s1
AC35 [1]: 3.38 µM

CO[C@@]12[C@@H]3N[C@@H]3CN1C1=C(C(=O)C(N)=C(C)C1=O)[C@@H]2COC(N)=O
AC35 [1]: 19.4 µM

COc1cccc2c1C(=O)c1c(O)c3c(c(O)c1C2=O)CC(O)(C(=O)CO)CC3OC1CC(N(C)C)C(O)C(C)O1 (configuration not stated)
AC35 [1]: 1.37 µM

COc1ccc2noc3c2c1C(=O)c1ccccc1-3
AC35 [1]: 5.51 µM

Cc1ccc(S(=O)(=O)Nc2ccc3c(c2)CC(=O)N([C@@H](C)CO)C[C@@H](C)[C@@H](CN(C)Cc2ccc(Cl)c(Cl)c2)O3)cc1
AC35 [1]: 22.6 µM

CCN1/C(=C/c2ccc3cc(C)cc(C)c3[n+]2CC)Sc2cc(C)ccc21
AC35 [1]: 1.05 µM

Nc1ccc2c3c(cccc13)C(=O)N(c1ccccc1)C2=O
AC35 [1]: 1.93 µM

O=[N+]([O-])c1ccc(/C=C/C2=NN(c3ccccc3)C(c3ccco3)C2)o1 (configuration not stated)
AC35 [1]: 2.93 µM

Nc1ccc2ccc3cccc[n+]3c2c1
AC35: 7.53 µM

CCN(CC)CCCNc1ccc2ncn3c4ccc(O)cc4c(=O)c1c23
AC35 [1]: 4.01 µM

COC(C(=O)C(O)C(C)O)C1Cc2cc3cc(OC4CC(OC5CC(O)C(O)C(C)O5)C(O)C(C)O4)c(C)c(O)c3c(O)c2C(=O)C1OC1CC(OC2CC(OC3CC(O)C(OC)C(C)O3)C(O)C(C)O2)C(O)C(C)O1 (configuration not stated)
AC35 [1]: 0.583 µM

O=C1c2cccc(NCCCNCCO)c2C(=O)c2cccc(NCCCNCCO)c21
AC35 [1]: 5.19 µM

O=C(C1CC1)N1CC(=O)N2[C@H](CO)[C@@H](c3ccc(-c4ccccc4F)cc3)[C@@H]2C1
AC35 [1]: 19.7 µM

CC1(S(=O)(=O)O)CC(=O)c2ccccc2C1=O (configuration not stated)
AC35 [1]: 6 µM

COc1cccc2c1C(=O)c1c(O)c3c(c(O)c1C2=O)C[C@](O)(C(C)=O)C[C@H]3O[C@@H]1C[C@@H](N)[C@@H](O)[C@@H](C)O1
AC35 [1]: 1.65 µM

CN1c2ccc(-c3ccc(F)cc3)cc2[C@H]2[C@H](CCN2S(=O)(=O)c2cccc(F)c2)[C@H]1CO
AC35 [1]: 15.5 µM

COC(=O)c1ccccc1-c1c2ccc(=N)cc-2oc2cc(N)ccc12
AC35 [1]: 0.0334 µM

CC(C)n1cc(/C=C/c2cc[n+](C)cc2)c2ccccc21
AC35 [1]: 0.752 µM

CC(C)N1CCc2c(sc(NC(=O)c3ccc([N+](=O)[O-])o3)c2C(N)=O)C1
AC35 [1]: 6.42 µM

C[n+]1c2cc(N)ccc2cc2ccc(N)cc21
AC35: 0.19 µM
AC35 [1]: 0.51 µM

COc1cccc(S(=O)(=O)N2C[C@@H]3N[C@H](C2)C3c2ccc(-c3cccc(C)c3)cc2)c1 (some centres not stated)
AC35 [1]: 21 µM

CCOC(=O)/C(=C/C=C1\Sc2cc(C)c(C)cc2N1CC)C(C)=O
AC35 [1]: 3.13 µM

OC[C@@H]1[C@@H](c2ccccc2)C2(CN(Cc3ccccc3F)C2)N1Cc1ccccc1F
AC35 [1]: 23.1 µM

COc1cc(/C=C2/SC(=S)N(Cc3ccccc3)C2=O)cc(Cl)c1O
AC35 [1]: 3.7 µM

CCCOc1cc(N(CC)CC)ccc1/C=C(/C#N)c1nc2ccc(C)cc2[nH]1
AC35 [1]: 0.505 µM

NS(=O)(=O)c1ccc(NC(=O)c2cccc3cc4ccccc4nc23)cc1
AC35 [1]: 20.9 µM

CN(C)CCCNc1c2ccccc2nc2ccccc12
AC35 [1]: 3.57 µM

N#CC(C#N)=C1C=C2C=C(N3CCOCC3)CCC2CC1 (configuration not stated)
AC35 [1]: 0.14 µM

CN(C)CCNc1ccc2ncn3c4ccc(O)cc4c(=O)c1c23
AC35 [1]: 8.57 µM

COc1cc(OC)c(-c2c3cc(O)c(=O)cc-3oc3cc(O)c(O)cc23)cc1OC
AC35 [1]: 4.15 µM

COc1ccc(OC)c(-c2nnc3n2N=C(c2ccc(OC)c(OC)c2)CS3)c1
AC35 [1]: 5.34 µM

COc1cccc(Nc2nc(-c3sc(NC(=O)c4ccccc4)nc3C)cs2)c1
AC35 [1]: 4.43 µM

CN1C(=CC=C2C=C(I)C(=O)C(I)=C2)C(C)(C)c2ccccc21
AC35 [1]: 5.68 µM

CCN(CC)CCn1c2ccccc2c2nc3ccccc3nc21
AC35 [1]: 17.3 µM

CN1C(=O)c2cccc3c(N)ccc(c23)C1=O
AC35 [1]: 2.62 µM

COC(=O)Cn1c(=NC(=O)c2cc(-c3cccs3)nc3ccccc23)sc2cc(S(N)(=O)=O)ccc21
AC35 [1]: 9.92 µM

c1ccc2c(c1)C1=NCCN1c1ccccc1-2
AC35 [1]: 8.91 µM

C[C@@H]1CN([C@@H](C)CO)C(=O)Cc2cc(N(C)C)ccc2O[C@@H]1CN(C)Cc1ccc(C(=O)Nc2ccccc2N)cc1
AC35 [1]: 19.7 µM

CCC1(C)OC(c2ccccc2)=C/C(=C/C=C2C(=O)NC(=O)NC2=O)O1 (configuration not stated)
AC35: 11.7 µM

O=C1/C(=C\c2cc(Cl)c(O)c(Cl)c2)SC(=S)N1Cc1ccccc1
AC35 [1]: 0.214 µM

CCCC#Cc1ccc([C@H]2[C@H](CO)N3C(=O)CN(C(=O)Nc4cc(F)ccc4F)C[C@@H]23)cc1
AC35 [1]: 23.3 µM

CCCCN1C(=O)/C(=C/C=C2\Oc3ccccc3N2CC)SC1=S
AC35 [1]: 1.64 µM

CCN(CC)c1ccc(/C=C(/C#N)c2nc3ccc(C)cc3[nH]2)c(OC(C)C)c1
AC35 [1]: 0.796 µM

CC1(C)OC(c2ccccc2)=C/C(=C/C=C2C(=O)NC(=O)NC2=O)O1
AC35: 13.4 µM

COc1cc(/C=C2\SC(=Nc3ccc(Cl)c(C(=O)O)c3)NC2=O)c(Br)c(Br)c1O
AC35 [1]: 2.19 µM

CCC1=C(CC2NCCc3ccccc32)CC2c3cc(OC)c(OC)cc3CCN2C1 (configuration not stated)
AC35 [1]: 15.4 µM

CNc1c2cccc(C)c2nc2c(C(=O)NCCN(C)C)cccc12
AC35 [1]: 10.5 µM

CC(=O)Nc1ccc2cc3ccc(NC(C)=O)cc3nc2c1
AC35 [1]: 3.98 µM

O=C(Nc1cccc(F)c1)N1CCCCN2[C@@H](CO)[C@H](c3ccc(C#Cc4ccccc4)cc3)[C@@H]2C1
AC35 [1]: 19.7 µM

CCOC1=C/C(=C/c2c(N)n3nc(S(=O)(=O)CC)sc3nc2=O)C=CC1=O
AC35 [1]: 9.92 µM

CCOc1ccc(C)cc1S(=O)(=O)n1cnc2ccccc21
AC35 [1]: 15.9 µM

CC(=NNC(=O)c1ccncc1)c1ccc2ccccc2c1O
AC35 [1]: 4.3 µM

CC(C)(C)c1ccc(OCC(=O)Nc2ccc3c4c(cccc24)C(=O)NC3=O)cc1
AC35 [1]: 6.68 µM

O=[N+]([O-])c1ccc(N2CCOCC2)c2c1no[n+]2[O-]
AC35: 10.4 µM

CN1/C(=C\C=C2/SC(=S)NC2=O)C(C)(C)c2ccccc21
AC35 [1]: 2.6 µM

C[C@H]1CCC/C=C/[C@@H]2C[C@H](O)C[C@H]2[C@H](O)/C=C/C(=O)O1
AC35: 15.2 µM

Cc1ccnc(N2C(=O)c3cccc4c([N+](=O)[O-])ccc(c34)C2=O)c1
AC35 [1]: 7.01 µM

COc1cc(OC)cc(C(=O)N[C@H](C(=O)Nc2nc3ccccc3[nH]2)C(C)C)c1
AC35 [1]: 9.27 µM

C=C1C(=O)O[C@@H]2C[C@@H](C)[C@@H]3C=CC(=O)[C@@]3(C)[C@@H](O)[C@H]12
AC35: 5.32 µM

CCN(CC)C1=CC2=CC(=C(C#N)C#N)CCC2CC1 (configuration not stated)
AC35 [1]: 0.0855 µM

Cc1cc2[nH]c3c(c[n+](C)c4ccccc34)c2cc1C
AC35 [1]: 13.4 µM

CCCC(=O)NC1=C(Cl)C(=O)c2ccccc2C1=O
AC35 [1]: 7.72 µM

CNc1ccc2c3c(cccc13)C(=O)N(C)C2=O
AC35 [1]: 0.651 µM

O=c1ccc2c(-c3ccccc3)c3ccc(O)cc3oc-2c1
AC35 [1]: 1.11 µM

COc1cccc2c1C(=O)c1c(O)c3c(c(O)c1C2=O)C[C@@](O)(C(C)=O)C[C@@H]3O[C@H]1C[C@H](N)[C@H](O)[C@H](C)O1
AC35 [1]: 0.856 µM

Cc1cc(Nc2ccc(Br)cc2)nc2ccccc12
AC35 [1]: 8.45 µM

C=C1SC(Nc2c(C)cc(C)cc2C)=NC12CCCCC2
AC35 [1]: 3.59 µM

COC(=O)c1cc2c(=O)c3ccccc3oc2nc1/C=C/N(C)C
AC35 [1]: 0.544 µM

COc1cccc2c1C(=O)C=C(C)C2=O
AC35 [1]: 6.68 µM

C[C@H]1CN([C@@H](C)CO)S(=O)(=O)c2ccc(C#Cc3ccc(F)cc3)cc2O[C@H]1CN(C)C(=O)NC1CCCCC1
AC35 [1]: 22.6 µM

C=CCCC(=O)Nc1nc(C)c(-c2csc(Nc3cc(OC)ccc3OC)n2)s1
AC35 [1]: 4.51 µM

O=C1c2cccc3c(N4CCCCC4)ccc(c23)C(=O)N1c1cccc(O)c1
AC35 [1]: 4.44 µM

COC1C(C)OC(OC2CC(C)(O)Cc3cc4c(c(O)c32)C(=O)c2c(O)cc3c(c2C4=O)OC2OC3(C)C(O)C(N(C)C)C2O)C(OC)C1(C)OC (configuration not stated)
AC35: 2.39 µM

CN1c2ccc(-c3ccc(F)cc3)cc2[C@H]2[C@H](CCN2S(=O)(=O)c2ccc(F)cc2)[C@H]1CO
AC35 [1]: 21.9 µM

CCOC(=O)C1CCCN(c2ccc([N+](=O)[O-])c3nonc23)C1 (configuration not stated)
AC35 [1]: 5.34 µM

COc1ccc(-c2cnc3c(NC=O)cc(-c4ccccc4)cn23)cc1OC
AC35 [1]: 10.4 µM

Nc1ccc(-c2c3ccc(=O)cc-3oc3cc(O)ccc23)cc1C(=O)O
AC35 [1]: 1.61 µM

c1ccc2c(NCCCN3CCOCC3)c3ccccc3nc2c1
AC35 [1]: 16.6 µM

C[C@H]1CN([C@@H](C)CO)S(=O)(=O)c2ccc(/C=C/c3ccccc3)cc2O[C@H]1CN(C)Cc1ccccc1
AC35 [1]: 21.9 µM

CCN1/C(=C\c2ccc3cc(C)ccc3[n+]2CC)Sc2cc(C)c(C)cc21
AC35 [1]: 1.02 µM

COc1ccccc1Nc1nc(-c2sc(NC(=O)C(C)(C)C)nc2C)cs1
AC35 [1]: 3.51 µM

COc1cccc(-c2ccc(C3[C@@H]4CN(S(=O)(=O)c5cccc(OC)c5)C[C@H]3N4)cc2)c1 (some centres not stated)
AC35 [1]: 16 µM

CCCC#Cc1ccc([C@H]2[C@@H](CO)N3CCCCN(S(=O)(=O)c4ccccc4C)C[C@H]23)cc1
AC35 [1]: 19 µM

O=c1c2ccccc2sc2c(CO)ccc(NCCN3CCCCC3)c12
AC35 [1]: 21.8 µM

Clc1ccc(Nc2ccc3ccccc3n2)cc1
AC35 [1]: 4.5 µM

N#Cc1ccc(-c2ccc3c(c2)[C@H]2[C@H](CCN2S(=O)(=O)c2ccccc2F)[C@@H](CO)N3)cc1
AC35 [1]: 21.3 µM

COc1ccc(S(=O)(=O)Nc2ccc3c(c2)C(=O)N([C@@H](C)CO)C[C@@H](C)[C@H](CN(C)Cc2ccc(Oc4ccccc4)cc2)O3)cc1
AC35 [1]: 1.52 µM

CC1=NCCc2c1[nH]c1cc(O)ccc21
AC35: 13.4 µM

CN(C)CCNC(=O)c1ccc(Cl)c2cc3ccccc3nc12
AC35 [1]: 9.45 µM

C=CCN1C(=O)/C(=C/C=C2/N(CC)c3ccc(S(=O)(=O)N(C)C)cc3N2CC)SC1=S
AC35 [1]: 1.3 µM

COc1cccc(S(=O)(=O)N2C[C@@H]3N[C@H](C2)C3c2ccc(-c3ccccc3F)cc2)c1 (some centres not stated)
AC35 [1]: 24.5 µM

Cc1ccc(N2C(=O)c3cccc4c([N+](=O)[O-])ccc(c34)C2=O)c2cccnc12
AC35 [1]: 4.81 µM

COc1ccccc1N1CCN(C(=O)c2ccc(-c3ccc(Cl)cc3)o2)CC1
AC35 [1]: 7.37 µM

CC[n+]1c(-c2ccccc2)c2cc(N)ccc2c2ccc(N)cc21
AC35: 13.3 µM

O=C(O)c1ccccc1-c1c2cc(I)c(=O)c(I)c-2oc2c(I)c(O)c(I)cc12
AC35 [1]: 1.74 µM

COc1ccc(S(=O)(=O)N2CC[C@@H]3[C@H](CO)N(C)c4ccc(-c5ccc(F)cc5)cc4[C@@H]32)cc1
AC35 [1]: 15.3 µM

Nc1c2ccccc2nc2ccccc12
AC35 [1]: 12.9 µM
